Measurements as given in PubChem BioAssay AID2060495 (Molecular Pharmacology Branch, DTP, NCI, 2025).
Several values for one entry are separate records, joined by “and”; a condition that tells them apart may be missing. Identical values can stand only once. Blank lines part the entries; values can stand above or below the molecule they belong to.

Tested on: 521955-158-R2-J5-PDC complex spheroid viability
Experiment: Anticancer human tumor 521955-158-R2-J5-PDC patient-derived pancreatic carcinoma cell line growth inhibition [GQUAD]
Conditions: for viability, T/C: stronger effect = lower value
Excerpt: DNA G-quadruplex Stabilizer Agents in Combinations in Complex Spheroids
A high-throughput screen of multi-cell type tumor spheroids was designed to identify active combinations of DNA G-quadruplex stabilizer agents and targeted small molecules. Complex spheroids include a stromal component modeled by human endothelial cells (HUVEC) and fibroblasts modeled by human mesenchymal stem cells (MSCs). The concentration ranges selected for each drug and investigational agent were based upon clinically achievable concentrations if the clinical Cmax of the agent was known.
Compounds. The drugs and investigational agents: pidnarulex (CX-5461; NSC782164), APTO-253 (NSC789042), BRACO-19 (NSC847499), peposertib (NSC802822), ceralasertib (NSC780249), elimusertib (NSC800525), camonsertib (NSC841442), AZD-1390 (NSC803789), olaparib (NSC753686), talazoparib (NSC767125), ART-558 (NSC835418), sotorasib (NSC818433), MRTX-1133 (NSC836407), SN-38 (NSC673596), topotecan (NSC609699), etoposide (NSC141540), doxorubicin (NSC123127), gemcitabine (NSC613327), 5-fluorouracil (NSC19893), paclitaxel (NSC125973), vemurafenib (NSC761431), panobinostat (NSC761190), R-306465 (JNJ-16241199; NSC773264), adavosertib (NSC754352), TP-3654 (NSC805149), carboplatin (NSC241240), KSQ-4279 (NSC840948), and staurosporine (NSC755774) were obtained from the National Cancer Institute (NCI) Developmental Therapeutics Program Chemical Repository (34). The FDA-approved anticancer drug set is available from the NCI Developmental Therapeutics Program. […] The stock solutions were prepared in dimethyl sulfoxide (DMSO, Sigma-Aldrich, St. Louis, MO, cat. D2650) at 800-fold the tested concentration and stored at -70 degrees C prior to their use. All drugs and investigational agents were tested over a range starting from a high concentration at or near the clinical Cmax and decreasing in half-log increments. If the clinical Cmax for an agent had not been determined, the highest concentration tested was 10 microM.
2.3 Cell Culture. All cells were maintained in an incubator at 37 degrees C and 5% CO2 with 95% humidity. The PDC lines were cultured according to standard operating procedures established by the NCI PDMR. All PDCs were thawed and cultured in Matrigel-coated flasks prepared with a working solution of 1X Ham's F-12 nutrient mix, without supplementation (Invitrogen, cat. 11765054), 100 U/mL penicillin-streptomycin (Invitrogen, cat. 15140122), and 2.5% Matrigel (Corning Inc., cat. 354248) for the first three passages. The 857933-349-R-J2-PDC line was cultured in 6C/Colon 1B media, which includes advanced DMEM/F-12 (Thermo Fisher Scientific, cat. 12634028), 10 mM HEPES (Thermo Fisher Scientific, cat. 15630080), 1X GlutaMAX supplement (Thermo Fisher Scientific, cat. 35050061), 0.1 mg/mL primocin (InvivoGen, cat. ant-pm-2), 10% defined fetal bovine serum, heat inactivated (HyClone Laboratories Inc., cat. SH30070.03HI), 50% L-WRN conditioned media (ATCC, cat. CRL-3276), 1.25 mM N-Acetyl-L-cysteine (Sigma-Aldrich, cat. A9165), 10 mM nicotinamide (Sigma-Aldrich, cat. N0636), 1X B-27 supplement (Thermo Fisher Scientific, cat. 17504044), 1X N-2 supplement (Thermo Fisher Scientific, cat. 17502048), 10 microM Y-27632 dihydrochloride (Tocris Bioscience, cat. 1254), and 50 ng/mL human EGF recombinant protein (Thermo Fisher Scientific, cat. PHG0311). The 485176-168-R4-J1-PDC line was cultured in Panc media, which includes all 6C/Colon 1B media components plus 100 ng/mL human FGF-10 (Thermo Fisher Scientific, cat. 100-26), 500 nM SB-431542 (Selleckchem, cat. S1067), and gastrin (Tocris, cat. 3006).
[…]

[1] = compound alone, run of 04/16/2024
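Further: spheroids exposed to agents for one week before reading.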
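Wherever viability, T/C is given: 100% = DMSO vehicle control viability.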

SMILES: COc1cc(C2c3cc4c(cc3C(OC3OC5COC(C)OC5C(O)C3O)C3COC(=O)C23)OCO4)cc(OC)c1O (centres undefined)
viability, T/C (compound 0.0316 µM): 95.5% and 105% and 91.1%
viability, T/C (compound 0.1 µM): 66.3% and 70.6% and 95%
viability, T/C (compound 0.316 µM): 79.4% and 67% and 81.2%
viability, T/C (compound 1 µM): 29% and 29.6% and 53.9%
viability, T/C (compound 3.16 µM): 14.7% and 15.7% and 30.7%
viability, T/C (compound 10 µM): 10.9% and 9.42% and 17.9%
IC50 (curve of compound): 0.616 µM and 0.427 µM and 1.25 µM

SMILES: COc1cccc2c1C(=O)c1c(O)c3c(c(O)c1C2=O)CC(O)(C(=O)CO)CC3OC1CC(N)C(O)C(C)O1 (centres undefined)
viability, T/C (compound 0.0316 µM): 97.9% and 93.8% and 88.4%
viability, T/C (compound 0.1 µM): 57.4% and 74.5% and 45%
viability, T/C (compound 0.316 µM): 34.3% and 31.6% and 30.2%
viability, T/C (compound 1 µM): 13.4% and 43% and 12.5%
viability, T/C (compound 3.16 µM): 4.07% and 4.69% and 3.22%
viability, T/C (compound 10 µM): 1.01% and 2.64% and 0.42%
IC50 (curve of compound): 0.145 µM and 0.254 µM and 0.0967 µM

SMILES: Cc1[nH]c2ccc(F)cc2c1-c1nc2c3cccnc3c3ncccc3c2[nH]1
viability, T/C (compound 0.0316 µM): 106% [middle of 12 runs]
viability, T/C (compound 0.1 µM): 100% [middle of 12 runs]
viability, T/C (compound 1 µM): 102% [middle of 12 runs]
viability, T/C (compound 10 µM): 89.7% [middle of 12 runs]
IC50 [1]: > 10 µM
IC50 (compound alone, run of 04/22/2024): > 10 µM

SMILES: Cc1[nH]c2ccccc2c1CCNCc1ccc(/C=C/C(=O)NO)cc1
viability, T/C (compound 0.000999 µM): 110% and 125% and 100%
viability, T/C (compound 0.00316 µM): 103% and 117% and 100%
viability, T/C (compound 0.00999 µM): 139% and 135% and 112%
viability, T/C (compound 0.0316 µM): 103% and 110% and 102%
viability, T/C (compound 0.0999 µM): 55.7% and 53.2% and 51%
viability, T/C (compound 0.316 µM): 20.8% and 22.1% and 11.1%
IC50 (curve of compound): 0.118 µM and 0.111 µM and 0.103 µM

SMILES: Nc1ccn(C2OC(CO)C(O)C2(F)F)c(=O)n1 (centres undefined)
viability, T/C (compound 0.0316 µM): 95.8% and 80% and 84.4%
viability, T/C (compound 0.1 µM): 86% and 65.7% and 69.4%
viability, T/C (compound 0.316 µM): 75.9% and 57.5% and 71%
viability, T/C (compound 1 µM): 17% and 46.2% and 22.6%
viability, T/C (compound 3.16 µM): 9.14% and 18.9% and 7.37%
viability, T/C (compound 10 µM): 8.29% and 13.5% and 6.71%
IC50 (curve of compound): 0.524 µM and 0.534 µM and 0.518 µM

Now from value to molecule, other results behind:

IC50 (curve of compound): 2.81 µM and 6.67 µM and 2.89 µM
SMILES: COc1ccc([C@@H](O)c2cc(-c3ncnc4cc(N5CCOCC5)ccc34)c(F)cc2Cl)nn1
viability, T/C (compound 0.0316 µM): 88.1% and 109% and 104%
viability, T/C (compound 0.1 µM): 87% and 96.8% and 88.3%
viability, T/C (compound 0.316 µM): 83.3% and 97% and 86.6%
viability, T/C (compound 1 µM): 63.6% and 77.3% and 58.9%
viability, T/C (compound 3.16 µM): 50.2% and 64.8% and 50.8%
viability, T/C (compound 10 µM): 38% and 42.1% and 40.9%

IC50 (curve of compound): > 10 µM
SMILES: COc1ncnc(C2CC2)c1-c1ncc2cnn(Cc3ccc(-c4nc(C(F)(F)F)cn4C(C)C)cc3)c2n1
viability, T/C (compound 0.0316 µM): 116% (2×) and 103%
viability, T/C (compound 0.1 µM): 88.7% and 102% and 106%
viability, T/C (compound 0.316 µM): 105% and 113% and 124%
viability, T/C (compound 1 µM): 85% and 107% and 113%
viability, T/C (compound 3.16 µM): 116% and 114% and 132%
viability, T/C (compound 10 µM): 124% and 108% and 134%

IC50 (curve of compound): > 10 µM
SMILES: Cc1cccc(N(C)C(=O)C2C(O)CCN2c2nc(C)cc(C(F)(F)F)c2C#N)c1 (centres undefined)
viability, T/C (compound 0.0316 µM): 120% and 113% and 96.8%
viability, T/C (compound 0.1 µM): 86.4% and 98.3% and 105%
viability, T/C (compound 0.316 µM): 90% and 104% and 107%
viability, T/C (compound 1 µM): 98.8% and 98.2% and 100%
viability, T/C (compound 3.16 µM): 120% and 115% and 123%
viability, T/C (compound 10 µM): 118% and 110% and 140%

IC50 [1]: 137 nM [middle of 11 runs]
SMILES: Cc1cnc(CNC(=O)c2c(=O)c3ccc(N4CCCN(C)CC4)nc3n3c2sc2ccccc23)cn1
viability, T/C (compound 0.0316 µM): 79.7% [middle of 12 runs]
viability, T/C (compound 0.316 µM): 38.2% [middle of 12 runs]
viability, T/C (compound 1 µM): 22.1% [middle of 12 runs]
viability, T/C (compound 3.16 µM): 20.7% [middle of 12 runs]
viability, T/C (compound 10 µM): 18.8% [middle of 12 runs]

IC50 (curve of compound): > 0.316 µM
SMILES: Cn1ncnc1[C@H]1c2n[nH]c(=O)c3cc(F)cc(c23)N[C@@H]1c1ccc(F)cc1
viability, T/C (compound 0.000999 µM): 94.9% and 94.7% and 84.8%
viability, T/C (compound 0.00316 µM): 81.5% and 95.2% and 80.6%
viability, T/C (compound 0.00999 µM): 92.4% and 99.2% and 79.1%
viability, T/C (compound 0.0316 µM): 78.9% and 94.1% and 78.3%
viability, T/C (compound 0.0999 µM): 86.8% and 89.5% and 85.8%
viability, T/C (compound 0.316 µM): 60.1% and 87.9% and 72.1%

IC50 (curve of compound): 0.838 µM and 0.501 µM and 0.307 µM
SMILES: O=C(NO)c1cnc(N2CCN(S(=O)(=O)c3ccc4ccccc4c3)CC2)nc1
viability, T/C (compound 0.0316 µM): 120% and 129% and 128%
viability, T/C (compound 0.1 µM): 106% and 103% and 98.8%
viability, T/C (compound 0.316 µM): 97.3% and 66.4% and 48.3%
viability, T/C (compound 1 µM): 42.6% and 28.9% and 15%
viability, T/C (compound 3.16 µM): 0.27% and 0.42% and 0.06%
viability, T/C (compound 10 µM): 0.25% and 0.27% and 0.09%

IC50 (curve of compound): > 10 µM
SMILES: O=C(c1cc(Cc2n[nH]c(=O)c3ccccc23)ccc1F)N1CCN(C(=O)C2CC2)CC1
viability, T/C (compound 0.0316 µM): 96.2% and 106% and 90.6%
viability, T/C (compound 0.1 µM): 93.6% and 88.4% and 70.8%
viability, T/C (compound 0.316 µM): 85.3% and 86.5% and 89.5%
viability, T/C (compound 1 µM): 65.6% and 88% and 66.8%
viability, T/C (compound 3.16 µM): 89.8% and 92.1% and 83.6%
viability, T/C (compound 10 µM): 91.2% and 81.6% and 80.2%

IC50 (curve of compound): 2.85 µM and 2.84 µM and > 10 µM
SMILES: O=c1[nH]cc(F)c(=O)[nH]1
viability, T/C (compound 0.0316 µM): 86.1% and 107% and 116%
viability, T/C (compound 0.1 µM): 86% and 88.3% and 87.4%
viability, T/C (compound 0.316 µM): 89.2% and 109% and 92.6%
viability, T/C (compound 1 µM): 80% and 99% and 101%
viability, T/C (compound 3.16 µM): 47.1% and 45% and 102%
viability, T/C (compound 10 µM): 20.3% and 18.2% and 54.8%
